# Literature values in patent publication US20140271816A1, “TREATMENT OF POTENTIAL PLATELET AGGREGATION WITH LIPOSOMALLY FORMULATED GLUTATHIONE AND CLOPIDOGREL” (priority 2013, published 2014).
# Like-named read-outs stand apart in the source and are kept apart here.
# Experiments:
# [1] = oral, 75 mg clopidogrel (base)
# [2] = humans, plain non-formulated glutathione
# [3] = rat; for toxin remaining: Co-60 in liver
smiles,measurement,setting,value
"COC(=O)[C@H](c1ccccc1Cl)N1CCc2sccc2C1 [Clopidogrel, clopidogrel]",peak plasma levels of the main circulating metabolite,[1],approx. 3 mg/L
same,time of peak plasma levels after dosing,[1]; main circulating metabolite,approximately one
"CC(=O)N[C@@H](CS)C(=O)O [NAC, N-Acetyl cysteine]",activity in forming the AM relative to GSH,percent of the activity of GSH,less than 10%
"N[C@@H](CCC(=O)N[C@@H](CS)C(=O)NCC(=O)O)C(=O)O [Plain glutathione, reduced glutathione]",absorption after oral administration,[2]; listed as glutathione,not absorbed well
same,absorption after oral administration,[2]; listed as plain GSH,not absorbed
same,absorption after oral administration,[2]; listed as plain glutathione,not absorbed
same,rank as reducing agent needed to form the active metabolites of clopidogrel,ex vivo studies,best reducing agent
same,toxin remaining,[3]; intravenous administration,36%
same,toxin remaining,[3]; oral administration,100%
same,removal of toxin / radiotagged marker (Co-60) from the liver,[3]; intravenous administration,64%
same,removal of toxin / radiotagged marker (Co-60) from the liver,[3]; oral administration,0%
same,removal of toxin / radiotagged marker (Co-60) from the liver,"[3]; oral administration, listed as plain GSH",no function
